In patent publication US8138191B2, “Inhibitor compounds and cancer treatment methods” (Critical Outcome Technologies Inc., priority 2007, dated 2012) one finds induction of death data, which are given here for one compound.

The test system of the test is HL-60. As to the kind of experiment: Flow cytometric analysis of cell death (Annexin V/PI), HL-60. The class given is cell-based, human. Particulars: HL-60, 200 nM. As to the method:
All cell lines were grown and exposed to various concentrations of COTI-2 or vehicle only control and the percentage of dead or dying cells were determined 24 and 48 h post-exposure by Annexin V and propidium iodide.
HL-60 (human promyelocytic leukemia) cells were grown as non-adherent cells in flasks in RPMI 1640 medium supplemented with 10% FBS. H226 (human non-small cell lung cancer) cells were grown in Eagle's MEM supplemented with 10% FBS. Both cell lines were obtained from the American Type Culture Collection (ATCC)(Rockville, Md.) and maintained at 37° C. in a humidified 5% CO2 atmosphere.
Cells were plated in 25-cm^2 flasks and treated with COTI-2 (0-100 μM) added from a stock DMSO/DMEM solution such that DMSO concentrations never exceeded 0.5%. Control cells were treated with stock DMSO/DMEM. […] Resuspended cells (100 μl) were incubated in the dark with 10 μl propidium iodide (PI, 50 ng per ml; Sigma, St. Louis, Mo.) plus Annexin V-FITC (25 ng per ml, green fluorescence; BD Biosciences, Mississauga, Ontario). […] Samples were analyzed for combined Annexin V/PI staining (to assess dead plus apoptotic cells) using a Beckman Coulter EPCS XL-MCL flow cytometer (Beckman Coulter, Hileah, Fla.) and the data were analyzed with CellQuest software.
(Flow cytometry measures light scatter and fluorescence of single cells or particles in a stream.)

On to `S=C(N/N=C1/CCCc2cccnc21)N1CCN(c2ccccn2)CC1` [COTI-2], for which the induction of death result reads like this: (24 h) “greater than 30%”; (48 h) “greater than 70%”.
